For assay [1], the target named is T1, DP (Homo sapiens, UniProt Q13258).
T1 sequence (Q13258 1-359): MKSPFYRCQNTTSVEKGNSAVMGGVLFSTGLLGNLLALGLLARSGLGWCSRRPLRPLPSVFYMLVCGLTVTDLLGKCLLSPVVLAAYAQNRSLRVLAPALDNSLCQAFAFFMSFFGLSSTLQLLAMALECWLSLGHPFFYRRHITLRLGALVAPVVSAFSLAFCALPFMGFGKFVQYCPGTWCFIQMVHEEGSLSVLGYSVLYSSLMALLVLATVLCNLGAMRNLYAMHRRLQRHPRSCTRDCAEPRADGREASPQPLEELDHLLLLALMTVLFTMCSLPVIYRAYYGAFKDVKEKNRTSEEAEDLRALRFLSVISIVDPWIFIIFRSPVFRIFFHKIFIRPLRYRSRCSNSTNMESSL
Put plainly: DP activity (IC50). Type of assay: binding.

Assay [2] deals with T2, human CRTH2 (Homo sapiens, UniProt Q9Y5Y4).
T2 construct: Full-length human CRTH2 cDNA was generated by polymerase chain reaction (PCR); expressed in transfected cells; host or cells: 293 cells stably transfected with pHLT124 (pCDNA3.1(+)), named 293(124)
T2 sequence (Q9Y5Y4 1-395): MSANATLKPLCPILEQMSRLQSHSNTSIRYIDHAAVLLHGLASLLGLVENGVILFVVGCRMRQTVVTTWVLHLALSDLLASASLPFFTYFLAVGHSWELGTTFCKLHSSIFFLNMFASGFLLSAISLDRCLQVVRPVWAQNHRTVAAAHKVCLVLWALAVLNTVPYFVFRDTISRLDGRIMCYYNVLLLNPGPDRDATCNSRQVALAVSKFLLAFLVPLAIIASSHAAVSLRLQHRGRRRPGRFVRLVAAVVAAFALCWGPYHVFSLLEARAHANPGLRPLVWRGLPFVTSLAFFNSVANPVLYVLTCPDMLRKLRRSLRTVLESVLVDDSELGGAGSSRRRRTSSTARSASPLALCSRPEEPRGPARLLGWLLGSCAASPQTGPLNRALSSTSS
The experiment in a line: Human CRTH2 binding assay (3H-PGD2, 293(124) cells). The method, then:
Full-length human CRTH2 cDNA was generated by polymerase chain reaction (PCR) using human genomic DNA as template and subsequently cloned into pCDNA3.1(+) (Invitrogen), generating a CRTH2 expression plasmid pHLT124. The plasmid was transfected into 293 cells, […], using LipofectAMINE™ reagents (Gibco/BRL). G418 ([…]) was added to the culture 48 h after transfection and cells were maintained under selection for 3 weeks to ensure that all surviving cells stably expressed CRTH2. These cells are labeled as 293(124) hereafter.
^3H-PGD2 binding assay was performed using 293(124) cells. […] Each assay contained 25,000 cells, appropriate amount of test compound when necessary and a mixture of 1 nM ^3H-PGD2 (Amersham Pharmacia Biotech) and 30 nM of unlabeled PGD2 (Cayman Chemicals) in […] final volume. The cell mixture was incubated at room temperature for 2.5 h with shaking and the cells were separated from free ^3H-PGD2 and transferred onto a filter plate using a cell harvester. Radioactivity bound to the cells was measured on a liquid scintillation counter. Nonspecific binding was determined in the presence of […] of unlabeled PGD2.

The mark [3] stands for this setting: buffer, read-out: DP IC50 (nM) Buffer.
[4] abbreviates: plasma, read-out: DP IC50 (nM) Plasma.
[5] abbreviates: buffer, read-out: CRTH2 IC50 (nM) Buffer.
Setting [6] is: plasma, read-out: CRTH2 IC50 (nM) Plasma.
Setting [7] is: whole blood, read-out: DP IC50 (nM) whole blood.
The mark [8] stands for this setting: whole blood, read-out: CRTH2 IC50 (nM) whole blood.

The values below come from patent US8183293B2, “Phenyl acetic acid derivatives” (Amgen Inc., priority 2007, dated 2012).

Where two headings read alike, the source gives them in different places. Bounds are passed on as bounds.

As to `CC1(NC(=O)c2ccc(Oc3cc(F)c(CC(=O)O)cc3Cl)c(NS(=O)(=O)c3ccc(C4CC4)cc3Cl)c2)CCC1`, the IC50 (as a rule, the midpoint of a concentration-inhibition curve) in assay [1] (setting [3]) was 4.4 nM; in assay [1] (setting [4]), 25.7 nM; in assay [2] (setting [5]) it was 3.9 nM; in assay [2] (setting [6]) it was 7.6 nM.
The matching figures for `Cc1ccc(S(=O)(=O)Nc2cc(C(=O)NC3CCC3)ccc2Oc2cc(F)c(CC(=O)O)cc2Cl)c(Cl)c1`: 2.2 nM, 22.9 nM, 1.3 nM and 7 nM.
`CCCCNC(=O)c1ccc(Oc2ccc(CC(=O)O)cc2Cl)c(NS(=O)(=O)c2ccc(Cl)cc2)c1` [reference compound]: the IC50 was 9.1 nM in assay [1] (setting [3]) and 100 nM in assay [1] (setting [4]).
Regarding `CCC(C)(C)NC(=O)c1ccc(Oc2cc(F)c(CC(=O)O)cc2Cl)c(NS(=O)(=O)c2ccc(C(F)(F)F)cc2Cl)c1`, the IC50 in assay [1] (setting [3]) was determined as 15.6 nM; in assay [1] (setting [4]) it was 51.6 nM; in assay [2] (setting [5]), 10 nM; in assay [2] (setting [6]), 35.8 nM.
For `CC(C)(C)NC(=O)c1ccc(Oc2cc(F)c(CC(=O)O)cc2Cl)c(NS(=O)(=O)c2ccc(OC(F)(F)C(F)F)cc2Cl)c1`, the IC50 in assay [1] (setting [3]) came out at 5.9 nM; in assay [1] (setting [4]), 52.5 nM; in assay [2] (setting [5]), 4.6 nM; in assay [2] (setting [6]), 10.9 nM.
On to `CC(C)(C)NC(=O)c1ccc(Oc2cc(F)c(CC(=O)O)cc2Cl)c(NS(=O)(=O)c2ccc(C3CC3)cc2Cl)c1` [drawing 69], for which the IC50 was 3 nM in assay [1] (setting [3]); 26 nM in assay [1] (setting [4]); 1 nM in assay [1] (setting [7]); 3 nM in assay [2] (setting [5]); 8 nM in assay [2] (setting [6]); 0.2 nM in assay [2] (setting [8]).
As for `Cc1ccc(S(=O)(=O)Nc2cc(C(=O)NC(C)(C)C)ccc2Oc2cc(F)c(CC(=O)O)cc2Cl)c(Cl)c1`, the IC50 in assay [1] (setting [3]) stood at 5.6 nM; in assay [1] (setting [4]) it was 17.2 nM; in assay [2] (setting [5]) it was 3.3 nM; in assay [2] (setting [6]) it was 6.1 nM.
On the same counts, the results for `CC1(NC(=O)c2ccc(Oc3cc(F)c(CC(=O)O)cc3Cl)c(NS(=O)(=O)c3ccc(OC(F)(F)F)cc3Cl)c2)CCC1` are 10.7 nM, 31.9 nM, 6.2 nM and 15.7 nM.
`CCNC(=O)c1ccc(Oc2ccc(CC(=O)O)cc2Cl)c(NS(=O)(=O)c2ccc(C)cc2)c1` [reference compound]: the IC50 in assay [2] (setting [5]) worked out at 2.3 nM; in assay [2] (setting [6]), 26 nM.
The matching figures for `CCNC(=O)c1ccc(Oc2ccc(CC(=O)O)cc2Cl)c(NS(=O)(=O)c2ccc(OC)cc2)c1` [reference compound]: 2.7 nM and 16.7 nM.
Take `CC1(NC(=O)c2ccc(Oc3cc(F)c(CC(=O)O)cc3Cl)c(NS(=O)(=O)c3ccc(C(F)(F)F)cc3Cl)c2)CCC1`: the half-inhibitory concentration (IC50) in assay [1] (setting [3]) came to 15.1 nM; in assay [1] (setting [4]) it was 41.9 nM; in assay [2] (setting [5]) it was 8.1 nM; in assay [2] (setting [6]), 18.4 nM.
On to `CCC(C)(C)NC(=O)c1ccc(Oc2cc(F)c(CC(=O)O)cc2Cl)c(NS(=O)(=O)c2ccc(C)cc2Cl)c1`, for which the IC50 in assay [1] (setting [3]) came out at 3.9 nM; in assay [1] (setting [4]), 21.8 nM; in assay [1] (setting [7]) it was 18.3 nM; in assay [2] (setting [5]), 4.9 nM; in assay [2] (setting [6]), 10.9 nM.
Turning to `CC(C)(C)NC(=O)c1ccc(Oc2cc(F)c(CC(=O)O)cc2Cl)c(NS(=O)(=O)c2ccc(OC(F)(F)F)cc2Cl)c1`, the IC50 was 14.5 nM in assay [1] (setting [3]); 37.8 nM in assay [1] (setting [4]); 17.3 nM in assay [1] (setting [7]); 9.3 nM in assay [2] (setting [5]); 19.4 nM in assay [2] (setting [6]); 2 nM in assay [2] (setting [8]).
With `CCNC(=O)c1ccc(Oc2cc(Br)c(CC(=O)O)cc2OC)c(NS(=O)(=O)c2ccc(F)cc2F)c1` [reference compound], the IC50 is greater than 1e+06 nM in assay [1] (setting [3]), 1.6 nM in assay [2] (setting [5]) and 25.7 nM in assay [2] (setting [6]).
Take `CCNC(=O)c1ccc(Oc2ccc(CC(=O)O)cc2)c(NS(=O)(=O)c2ccc(Cl)cc2Cl)c1` [reference compound]: the concentration for half-maximal inhibition (IC50) in assay [1] (setting [3]) is 120 nM; in assay [1] (setting [4]), 8420 nM; in assay [2] (setting [5]), 4 nM; in assay [2] (setting [6]) it was 92 nM.
For `CCNC(=O)c1ccc(Oc2ccc(CC(=O)O)cc2Cl)c(NS(=O)(=O)c2ccc(Cl)cc2Cl)c1` [reference compound], the IC50 stood at 12 nM in assay [1] (setting [3]), 2.2 nM in assay [2] (setting [5]) and 71 nM in assay [2] (setting [6]).
As to `O=C(O)Cc1cc(Cl)c(Oc2ccc(C(=O)NC3CCC3)cc2NS(=O)(=O)c2ccc(C3CC3)cc2Cl)cc1F`, the IC50 in assay [1] (setting [3]) amounted to 4.6 nM; in assay [1] (setting [4]), 18 nM; in assay [1] (setting [7]), 0.6 nM; in assay [2] (setting [5]) it was 3.3 nM; in assay [2] (setting [6]), 7.9 nM; in assay [2] (setting [8]), 0.5 nM.
With `CC(C)(C)NC(=O)c1ccc(Oc2cc(F)c(CC(=O)O)cc2Cl)c(NS(=O)(=O)c2ccc(C(F)(F)F)cc2Cl)c1`, the IC50 stood at 12.6 nM in assay [1] (setting [3]); 43 nM in assay [1] (setting [4]); 26.6 nM in assay [1] (setting [7]); 3.5 nM in assay [2] (setting [5]); 8.1 nM in assay [2] (setting [6]); 1.1 nM in assay [2] (setting [8]).
Consider `Cc1ccc(S(=O)(=O)Nc2cc(C(=O)NC3(C)CCC3)ccc2Oc2cc(F)c(CC(=O)O)cc2Cl)c(Cl)c1`, for which the half-maximal inhibitory concentration (IC50) in assay [1] (setting [3]) was 2.8 nM; in assay [1] (setting [4]), 25.6 nM; in assay [2] (setting [5]) it was 3.2 nM; in assay [2] (setting [6]), 12.1 nM.
On the same counts, the results for `CC(C)(C)NC(=O)c1ccc(Oc2cc(F)c(CC(=O)O)cc2Cl)c(NS(=O)(=O)c2ccc(Cl)cc2Cl)c1` are 18 nM, 79 nM, 5 nM and 13 nM.
For the compound `CC(C)(C)NC(=O)c1ccc(Oc2cc(F)c(CC(=O)O)cc2F)c(NS(=O)(=O)c2ccc(C3CC3)cc2Cl)c1`, the IC50 in assay [1] (setting [3]) worked out at 5 nM; in assay [1] (setting [4]) it was 39 nM; in assay [2] (setting [5]), 3 nM; in assay [2] (setting [6]), 10 nM.
